Data on 3 molecules can be found in publication PMC9256669, “Monomethyl auristatin antibody and peptide drug conjugates for trimodal cancer chemo-radio-immunotherapy” (Nature Communications, 2022).

The test system of one series is B16 tumors. Briefly: Subcutaneous tumor therapy, CDX3379-MMAE or CDX3379-MMAF with IR, mouse survival. The format is in vivo, C57BL/6 mice.
In another series the test system is B16 cells. Briefly: NanoString PanCancer IO 360 gene expression and gene set analysis of MMAE-treated cells. Format: cell-based, murine. The protocol:
RNA was isolated from cells or tumor tissues and comprehensive immune profiling was analyzed using the NanoString PanCancer IO 360 Panel and NanoString nCounter PanCancer Mouse Immune Profiling gene expression platforms. Gene set analysis with calculated global significance scores and directed significance scores were calculated for treated cells. The Advanced Analysis module of the nSolver software was used to analyze genes associated with listed immune cells in tumors and given a Z-score (n = 3 mice per group). Expression levels of GZMB were analyzed using real-time quantitative PCR. Reverse transcription was performed with the iScript cDNA synthesis kit (Biorad), using aliquots of total RNA extracted with RNeasy Plus Mini Kit (Qiagen). Gene-specific primers were GZMB-F […] and GZMB-R […]. Real-time PCR reactions were performed using the CFX Connect Real-Time PCR System (Biorad) and the amplifications were done using the iTaq Universal SYBR Green Supermix (Biorad). qPCR data were analyzed using the Bio-Rad CFX Maestro software. […]
a Undirected Directed Enrichment
Pathway # of Genes Enrichment Score Score
Gene Name Supplementary Figure 1: Gene
Mdm2 expression analysis of MMAE treated
Casp3 cells. B16 cells exposed to 5 nM MMAE for
Bcl2l1 72 hrs. RNA collected and analyzed using Cd68 murine NanoString PanCancer IO 360
Thbs1 Panel. a) Gene set analysis with calculated
Gls global significance scores and directed
Fstl3 significance scores. b) Heatmap depicting
Mfge8 2 differential gene expression of 36 genes
Brd3 1 control and MMAE treated cells. Source
Pias4 0 data are provided in Source Data file under
Fzd9 tab labeled Figure 1b.
Supplementary Data 1: Complete NanoString expression data of Figure 1b. Untreated control (n=2) and 5 nM MMAE treated (n=3) B16 cells were harvested at 72 hrs. RNA was collected and analyzed using NanoString PanCancer IO 360 Panel. Individual normalized RNA expression values shown for each gene. […]

A further series relates to LL/2 cells. Briefly: Cell cycle analysis. Format: cell-based, murine. The protocol:
Cells were MMAE treated for 24 h, fixed in 70% ethanol, stained with FxCyclePI/RNase solution (Life Technologies), and then analyzed by FACS using FlowJo software. […]
0.9 b) Cell cycle analysis […]
Source data are provided in Source Data file.

A short description of series [1]: Tumor drug measurement (MMAE by LC-MS/MS) after ACPP-MMAE. Format: in vivo, mouse. The settings on record: LL/2 and B16 tumors, 10 nmoles ACPP-MMAE i.v. As to the method: For CDX3379-MMAE drug measurements, 6-week-old female NOD SCID (University of California San Diego Animal Care Program) were injected orthotopically into the tongue with 150,000 CAL27 PIK3CA H1047R expressing cells in 20 µl of DMEM. After 10 days, mice were intravenously (i.v.) injected through the tail vein with 2.5 nmole of CDX3379-MMAE in 50 µl of PBS. […] Tumors were excised on days indicated in figure legends, weighed, and homogenized in 10 v/w of 2% acetic acid in 1:1 acetonitrile:water with a point sonicator (Fisher Scientific) using an amplitude range of 5–15% for 20 s on ice. Homogenates were centrifuged ([…], 10 min), supernatants collected for drug concentration measurements using LC–MS/MS. Drug concentration was determined by LC–MS/MS with Luna-2 C18 column and Agilent Trap XCT mass spectrometer. For MMAE tissue concentrations, integrated ion currents for m/z 682.4, 496.4 and m/z 686.4, 506.4 extracted from fragmented m/z 740.4 and 718.4, respectively, were combined. The total ion current was fit to a standard curve generated for each drug to quantitate tissue drug concentration.

Where [2] appears, read: 5 nM MMAE 72 hrs, gene set analysis.
[3] abbreviates: 5 nM MMAE 72 hrs, samples MMAE_5, MMAE_1, MMAE_3.

Several values for one entry are separate records, joined by “and”; a condition that tells them apart may be missing. Equal values may be shown once. Entries after “also recorded” stand apart in the source; their conditions may differ. Non-standard residues stand in square brackets, D forms with d. Residues, ends and D or L forms follow the SMILES beside them. *: point of attachment. Dolaproine = CO[C@@H]([C@@H]1CCCN1)[C@@H](C)C(=O)O; Dil = CC[C@H](C)[C@H](NC)[C@@H](CC(=O)O)OC; X1 = C[C@@H](N*)[C@@H](O)c1ccccc1; NMeV = CN[C@H](C(=O)O)C(C)C

Experimental for B16 tumors: MOC1, B16, LL/2, and MC38 tumor cells were injected subcutaneously into the hindlimbs of 6-week-old female C57BL/6 albino mice in 100 µl of 1:1 Matrigel (BD) and PBS solution. Fractionated IR was delivered focally to the tumor-bearing hindlimbs (3 Gy to MC38 tumors and 5 Gy to LL/2 and B16 tumors) as indicated in figure legends using a PXI X-RAD 225 XL irradiator at maximal dose rate of 3 Gy/min with a beam-conditioning aluminum filter (Precision X-ray Irradiation). For RAG1 KO studies, 6-week-old female Rag1^tm1Mom mice were injected subcutaneously with tumor cells in their hindlimbs (Jackson Labs). For CD8 depletion studies, mice were i.p. injected with anti-CD8 (BioXCell #BE0117) at 10 mg/kg on days −6, −5 and −4 tumor cell implant and then weekly starting on day after tumor cells were injected or control antibody. […] Tumor volumes were measured and calculated using the formula as ½ * length * width^2. Mice were sacrificed when tumor volume reached >1500 mm^3, maximal tumor volume approved on our protocol for subcutaneous tumors.

As to “CDX3379-MMAE: anti-HER3 antibody CDX3379 with 4 MMAE per antibody via MC-VC-PABC linker, labeled with Cy5”, the “tumor control and survival, + IR” value in the series with B16 tumors (B16, 2.5 nmoles ADC x 2 doses + IR 5 Gy x 3) was “prolonged tumor control and survival; also recorded: superior to CDX3379-MMAF”. The “Mouse survival, status” value in the series with B16 tumors (with IR, individual mice, status at the day, Figure 3h) was 1 and 0.
With `CC[C@H](C)[C@@H]([C@@H](CC(=O)N1CCC[C@H]1[C@H](OC)[C@@H](C)C(=O)N[C@H](C)[C@@H](O)c1ccccc1)OC)N(C)C(=O)[C@@H](NC(=O)[C@@H](NC)C(C)C)C(C)C` [MMAE, monomethyl auristatin E] (H-[NMeV]V[Dil][Dolaproine]-X1), in the series with B16 cells (setting [2]), the “Directed Enrichment Score: Angiogenesis” value worked out at 1.8412, the “Directed Enrichment Score: Antigen Presentation” value is given as 0.8121, the “Directed Enrichment Score: Apoptosis” value was 0.9856 and the “Directed Enrichment Score: Autophagy” value is on record as -3.279. In the series on B16 cells (setting [2]), the “Directed Enrichment Score: Cell Proliferation” value is -0.7774; the “Directed Enrichment Score: Costimulatory Signaling” value is -1.9366; the “Directed Enrichment Score: Cytokine and Chemokine Signaling” value is on record as -1.4236; the “Directed Enrichment Score: Cytotoxicity” value was found to be 0.8779. Moreover, in the series with B16 cells (setting [2]), the “Directed Enrichment Score: DNA Damage Repair” value is listed as -1.9501, the “Directed Enrichment Score: Epigenetic Regulation” value was -1.7988, the “Directed Enrichment Score: Hedgehog Signaling” value was -2.2414 and the “Directed Enrichment Score: Hypoxia” value was -2.4508. In addition, in the series on B16 cells (setting [2]), the “Directed Enrichment Score: Immune Cell Adhesion and Migration” value is listed as -1.0133; the “Directed Enrichment Score: Interferon Signaling” value worked out at 0.9986; the “Directed Enrichment Score: JAK-STAT Signaling” value was -1.657; the “Directed Enrichment Score: Lymphoid Compartment” value is given as 0.8253. Further, in the series on B16 cells (setting [2]), the “Directed Enrichment Score: MAPK” value is -1.437; the “Directed Enrichment Score: Matrix Remodeling and Metastasis” value was 1.1775; the “Directed Enrichment Score: Metabolic Stress” value was -2.3196; the “Directed Enrichment Score: Myeloid Compartment” value is listed as 0.1922. For the same molecule, in the series with B16 cells (setting [2]), the “Directed Enrichment Score: NF-kappaB Signaling” value is listed as -0.7242, the “Directed Enrichment Score: Notch Signaling” value is recorded as -1.0152, the “Directed Enrichment Score: PI3K-Akt” value is -1.358 and the “Directed Enrichment Score: TGF-beta Signaling” value is -2.2971. For the same molecule, in the series on B16 cells (setting [2]), the “Directed Enrichment Score: Wnt Signaling” value was -2.3166, the “Undirected Enrichment Score: Angiogenesis” value stood at 2.7066, the “Undirected Enrichment Score: Antigen Presentation” value was found to be 1.2276 and the “Undirected Enrichment Score: Apoptosis” value is 2.3071. Besides, in the series with B16 cells (setting [2]), the “Undirected Enrichment Score: Autophagy” value worked out at 3.5536; the “Undirected Enrichment Score: Cell Proliferation” value is given as 2.1596; the “Undirected Enrichment Score: Costimulatory Signaling” value was 2.2732; the “Undirected Enrichment Score: Cytokine and Chemokine Signaling” value came to 1.9551. Further, in the series on B16 cells (setting [2]), the “Undirected Enrichment Score: Cytotoxicity” value is given as 1.637, the “Undirected Enrichment Score: DNA Damage Repair” value is reported as 2.4043, the “Undirected Enrichment Score: Epigenetic Regulation” value is recorded as 2.4405 and the “Undirected Enrichment Score: Hedgehog Signaling” value is recorded as 3.1229. Moreover, in the series on B16 cells (setting [2]), the “Undirected Enrichment Score: Hypoxia” value stood at 2.9454; the “Undirected Enrichment Score: Immune Cell Adhesion and Migration” value worked out at 1.8838; the “Undirected Enrichment Score: Interferon Signaling” value amounted to 1.5239; the “Undirected Enrichment Score: JAK-STAT Signaling” value turned out to be 2.5395. In the series with B16 cells (setting [2]), the “Undirected Enrichment Score: Lymphoid Compartment” value was 1.1946; the “Undirected Enrichment Score: MAPK” value was 2.756; the “Undirected Enrichment Score: Matrix Remodeling and Metastasis” value came out at 2.3587; the “Undirected Enrichment Score: Metabolic Stress” value was 2.8728. Further, in the series with B16 cells (setting [2]), the “Undirected Enrichment Score: Myeloid Compartment” value is on record as 1.2711, the “Undirected Enrichment Score: NF-kappaB Signaling” value is reported as 1.6264, the “Undirected Enrichment Score: Notch Signaling” value is 2.5438 and the “Undirected Enrichment Score: PI3K-Akt” value is 2.7297. Further, in the series with B16 cells (setting [2]), the “Undirected Enrichment Score: TGF-beta Signaling” value was 3.339 and the “Undirected Enrichment Score: Wnt Signaling” value was found to be 3.1574. Also, in the series on B16 cells (setting [3]), the “NanoString scores: Bcl2l1” value is 0.4361 and 0.5098 and 0.454; the “NanoString scores: Cd68” value is 1.981 and 1.6572 and 1.978; the “NanoString scores: Mdm2” value was 0.6422 and 0.6786 and 0.4527. The “pathways downregulated by MMAE (gene set analysis)” value in the series on B16 cells (downregulated pathways / all pathways) is recorded as 17/25. In addition, the G2/M fraction in the series on LL/2 cells (MMAE 1 nM, replicate 1) is recorded as 0.15. In the series with LL/2 cells (MMAE 1 nM, replicate 2), the G2/M fraction was 0.12. Besides, the G2/M fraction in the series on LL/2 cells (MMAE 2 nM, replicate 1) is listed as 0.13. Moreover, the G2/M fraction in the series with LL/2 cells (MMAE 2 nM, replicate 2) was found to be 0.14. The same molecule came in with a G2/M fraction in the series with LL/2 cells (MMAE 5 nM, replicate 1) of 0.21. This molecule also yielded a G2/M fraction in the series with LL/2 cells (MMAE 5 nM, replicate 2) of 0.23. The G2/M fraction with LL/2 cells (MMAE 10 nM, replicate 1) is reported as 0.63. Besides, in the series with LL/2 cells (MMAE 10 nM, replicate 2), the G2/M fraction is reported as 0.53.
Consider “cyclo(RGD)fc-MC-HN-peg8-e9-oPLGC(Me)AG-r9-c-(MC-VC-PABC-MMAE)-CONH2 [ACPP-MMAE]”, for which the “release of conjugated drug warhead in tumors” value in series [1] is “efficiently released its conjugated drug warhead equally in LL/2 and B16 tumors”.
